Measured values from the NIST ThermoML archive (doi:10.1021/acs.jced.8b00643).
± gives the expanded uncertainty stated by the source.

How the values were obtained:
[1] = for vapor or sublimation pressure: Transpiration method
[2] = Molar enthalpy of transition or fusion; conditions: Crystal; DSC

O=C1NCCCO1 [tetrahydro-1,3-oxazin-2-one]
Conditions | mass density [kg/m3]
[1], 293 K, 101.33 kPa, Crystal, Pycnometric method | 1490 ± 20

[1]
Conditions | Triple point temperature [K] | vapor or sublimation pressure [kPa]
327.7 K, Crystal | – | 0.00023 ± 2e-05
332.7 K, Crystal | – | 0.00039 ± 3e-05
337.7 K, Crystal | – | 0.00061 ± 5e-05
342.7 K, Crystal | – | 0.001 ± 7e-05
345.7 K, Crystal | – | 0.00134 ± 0.0001
348.6 K, Crystal | – | 0.00167 ± 0.00012
352.6 K, Crystal | – | 0.0024 ± 0.00017
358 K, Liquid | – | 0.00409 ± 0.00027
361.3 K, Liquid | – | 0.00517 ± 0.00036
365.3 K, Liquid | – | 0.00677 ± 0.00046
368 K, Liquid | – | 0.00807 ± 0.00055
370.2 K, Liquid | – | 0.0095 ± 0.00063
372.8 K, Liquid | – | 0.01116 ± 0.00073
377.4 K, Liquid | – | 0.01498 ± 0.00098
380.3 K, Liquid | – | 0.01771 ± 0.0011
382.2 K, Liquid | – | 0.02005 ± 0.0013
385.1 K, Liquid | – | 0.02395 ± 0.0015
Crystal, DSC | 355.3 ± 0.9 | –

Conditions | Molar enthalpy of transition or fusion [kcal/mol]
[2] | 3.66 ± 0.263
